Laboratory results from publication PMC7583046, “The Paralogue of the Intrinsically Disordered Nuclear Protein 1 Has a Nuclear Localization Sequence that Binds to Human Importin α3” (International Journal of Molecular Sciences, 2020).
Entries after “also recorded” stand apart in the source; their conditions may differ.

Tests used:
[1] = Conformation of isolated peptide by fluorescence, far-UV CD and NMR; assay type: physicochemical
Procedure: Appropriate blank corrections were made in all spectra.
All spectra were corrected by subtracting the corresponding baseline.
An amount of 128 scans was acquired with 16 K acquisition points for the homonuclear 1D-^1H-NMR spectrum, and using a peptide concentration of 1.0–1.2 mM. Water signal was suppressed using the WATERGATE sequence. The spectrum was processed with Bruker TopSpin 2.1 (Bruker GmbH, Karlsruhe, Germany), after zero-filling and apodization with an exponential window.
Two-dimensional spectra were acquired in each dimension in the phase-sensitive mode using the time-proportional-phase incrementation technique (TPPI) and a spectral width of 7801.69 Hz; the final concentration of the NLS-NUPR1L was the same as that used in the 1D experiments. Standard TOCSY (Total correlation spectroscopy) (with a mixing time of 80 ms) and NOESY experiments (with a mixing time of 250 ms) were performed by acquiring a data matrix size of 4096 × 512 points. The DIPSI (decoupling in the presence of scalar interactions) spin-lock sequence was used in the TOCSY experiments with 1 s of relaxation time. Typically, 96 scans were acquired per increment in the first dimension, and the residual water signal was removed using the WATERGATE sequence. NOESY spectra were collected typically with 96 scans per increment in the first dimension, with the residual water signal removed again by the WATERGATE sequence, and with 1 s of relaxation time. Data were zero-filled, resolution-enhanced with a square sine-bell window function optimized in each spectrum, baseline-corrected, and processed with the Bruker TopSpin 2.1 software (Bruker GmbH, Karlsruhe, Germany). The ^1H resonances were assigned by standard sequential assignment processes. The chemical shift values of Hα protons in random-coil regions were obtained from tabulated data, corrected by neighbouring residue effects.

[2] = molecular target: T1, human importin α3 (Impα3) (Homo sapiens, UniProt O00629); assay: Isothermal titration calorimetry, binding to Impα3; settings: Tris 50 mM pH 8, 298 K
T1 construct: Human importin α3 isoform (residues 1–521); His-tag (N); made in house; host or cells: E. coli BL21 (DE3)
T1 sequence (O00629 1-521): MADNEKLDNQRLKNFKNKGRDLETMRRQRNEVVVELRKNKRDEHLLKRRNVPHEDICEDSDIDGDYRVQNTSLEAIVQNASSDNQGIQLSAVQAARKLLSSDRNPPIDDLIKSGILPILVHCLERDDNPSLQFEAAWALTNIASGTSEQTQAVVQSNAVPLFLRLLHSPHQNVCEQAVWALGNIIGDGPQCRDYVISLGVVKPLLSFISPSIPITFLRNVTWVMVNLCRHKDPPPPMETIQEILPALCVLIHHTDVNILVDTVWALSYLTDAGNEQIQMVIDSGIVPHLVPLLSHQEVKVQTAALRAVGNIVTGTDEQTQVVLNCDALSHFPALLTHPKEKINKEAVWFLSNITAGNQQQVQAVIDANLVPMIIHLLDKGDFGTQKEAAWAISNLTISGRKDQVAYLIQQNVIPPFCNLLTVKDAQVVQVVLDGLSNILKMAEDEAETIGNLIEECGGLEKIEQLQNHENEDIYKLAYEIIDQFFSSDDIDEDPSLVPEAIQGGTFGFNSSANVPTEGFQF
From the text: Figure 4 Binding of NLS-NUNPR1L to both importin species: (A) Titration curve monitoring the changes of Impα3 fluorescence at 340 nm in the presence of NLS-NUPR1L, after excitation at 280 nm. (B) Titration curve monitoring the changes of ∆Impα3 fluorescence at 340 nm in the presence of NLS-NUPR1L, after excitation at 280 nm. […] (C) Calorimetric binding isotherms (ligand normalized heat effect per injection as a function of the ligand/protein molar ratio) for the interaction of NLS-NUPR1L with Impα3 (left) and ∆Impα3 (right) are shown, with the thermogram (raw thermal power data as a function of time) at the top of each panel. Binding parameters were estimated by non-linear least squares regression data analysis of the interaction isotherms applying a single ligand binding site model implemented in Origin 7.0. (OriginLab, Northampton, MA, USA).
The experimental set-up and data processing of ITC experiments have been described previously. […] The temperature for all experiments was 298 K. The experiments were analyzed applying a model considering a single ligand binding site (1:1 stoichiometry for the NLS-NUPR1L/Impα3 (or ∆Impα3) interaction) implemented in Origin 7.0 (OriginLab, Northampton, MA, USA).

[3] = DOSY translational diffusion NMR; assay type: physicochemical; settings: 120 μM peptide, 283 K
Procedure: The peptide concentration in DOSY experiment was 120 μM, and 128 scans were acquired, where the gradient strength was varied linearly. Translational self-diffusion measurements were performed with the pulsed-gradient spin-echo sequence in the presence of 100% D2O. Experimental details have been described elsewhere. The gradient strength was varied in sixteen linear steps between 2 and 95% of the total power of the gradient coil. The gradient strength was calibrated using the value of the translational diffusion coefficient, D, for the residual proton water signal in a sample containing 100% D2O in a 5 mm tube [53]. The length of the gradient was 2.25 ms, the time between the two pulse gradients in the pulse sequence was 200 ms, and the recovery delay between the bipolar gradients was 100 μs. The methyl groups with signals between 1.0 and 0.80 ppm were used for peak integration (Section 2.2.1). Fitting of the exponential curves, obtained from experimental data as previously described, was carried out with KaleidaGraph version 3.5 (Synergy Software, Reading, PA, USA). A final concentration of 1% of dioxane, which was assumed to have a hydrodynamic radius Rh = 2.12 Å [53], was added to the peptide solution.

[4] = Aggregation / self-association tendency; assay type: physicochemical; settings: isolated peptide, refers to Section 2.2.1

Ac-RTRREQALRTNWPAPGGHERKVAQ-NH2 [NLS-NUPR1L]
far-UV CD minimum ([1]; 298 K, 50 mM phosphate pH 7.0): ~ 203 nm
fluorescence emission maximum ([1]; excitation 280 nm, 50 mM phosphate pH 7.0, 298 K): 353 nm
conformation in aqueous solution ([1]; fluorescence, far-UV CD and NMR): random-coil conformation; also recorded: disordered in aqueous solution; also recorded: did not have any propensity to acquire helix- or turn-like conformations
n, stoichiometry (ITC), Impα3 [2]: 1.04 ± 0.05
∆H (ITC), Impα3 [2]: -3.1 ± 0.5 kcal/mol
translational diffusion coefficient D ([3]; 100% D2O, pH 7.2, 50 mM Tris): 1.74 ± 0.05 × 10^−6 cm^2 s^−1
association state [3]: monomeric
hydrodynamic radius Rh ([3]; estimated by comparison with dioxane (1%)): 12 ± 2 Å
tendency to aggregate [4]: did not have any tendency to aggregate
